Reference: patent publication US7135489B2, “Crystalline form of 4-[5-methyl-3-phenylisoxazol-4-yl] benzenesulfonamide” (G. D. Searle & Co., priority 1996, dated 2006)

Experiments:
Type in all cases: physicochemical
[1] = Stability of crystalline form compared with the earlier form; conditions: compared with earlier material Form A
[2] = Stability after mechanical grinding (milling)
[3] = Thermal stability of crystal form
Procedure: Melting points were performed either on a Thomas Hoover melting point apparatus or a Mettler FP900 Thermosystem melting point apparatus. Melting ranges were determined by differential scanning calorimetry on a TA Instruments Differential Scanning Calorimeter (Model 2100 controller, Model 912 dual calorimeter). The sample (1-2 mg) was placed in an unsealed aluminum pan and heated at 10° C./minute.

stability relative to Form A [1] | stability after mechanical grinding (milling) [2] | thermal stability [3] | Structure (SMILES)
more stable | – | – | Cc1onc(-c2ccccc2)c1-c1ccc(S(N)(=O)=O)cc1 [Form B, 4-[5-methyl-3-phenylisoxazol-4-yl]benzenesulfonamide]
– | unstable | thermally unstable | Cc1onc(-c2ccccc2)c1-c1ccc(S(N)(=O)=O)cc1 [Form A, 4-[5-methyl-3-phenylisoxazol-4-yl]benzenesulfonamide]
